Columns and labels:
Details in all cases: Preemergence
velvetleaf = assay: Test B pre/postemergence velvetleaf; assay type: in vivo, Abutilon theophrasti
Method in brief: (§1)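 Herbicidal effect was estimated by eye on a ten-point control scale after plants spent twelve to sixteen days in a greenhouse following soil or foliar treatment. Foliar sprays targeted plants at one to four leaves; all doses were formulated in a non-phytotoxic solvent with surfactant.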

corn = assay: Test B pre/postemergence corn; assay type: in vivo, Zea mays
Method in brief: as §1

pigweed = assay: Test B pre/postemergence pigweed; assay type: in vivo, Amaranthus retroflexus
Method in brief: as §1

blackgrass = assay: Test B pre/postemergence blackgrass; assay type: in vivo, Alopecurus myosuroides
Method in brief: as §1

wheat = assay: Test B pre/postemergence wheat; assay type: in vivo, Triticum aestivum
Method in brief: as §1

bedstraw = assay: Test B pre/postemergence bedstraw; assay type: in vivo, Galium aparine
Method in brief: as §1

purple nutsedge = assay: Test B pre/postemergence purple nutsedge; assay type: in vivo, Cyperus rotundus
Method in brief: as §1

cocklebur = assay: Test B pre/postemergence cocklebur; assay type: in vivo, Xanthium strumarium
Method in brief: as §1

crabgrass = assay: Test B pre/postemergence crabgrass; assay type: in vivo, Digitaria sanguinalis
Method in brief: as §1

wild oat = assay: Test B pre/postemergence wild oat; assay type: in vivo, Avena fatua
Method in brief: as §1

soybean = assay: Test B pre/postemergence soybean; assay type: in vivo, Glycine max
Method in brief: as §1

rape = assay: Test B pre/postemergence rape; assay type: in vivo, Brassica napus
Method in brief: as §1

giant foxtail = assay: Test B pre/postemergence giant foxtail; assay type: in vivo, Setaria faberii
Method in brief: as §1

sugar beet = assay: Test B pre/postemergence sugar beet; assay type: in vivo, Beta vulgaris
Method in brief: as §1

surinam grass = assay: Test B pre/postemergence surinam grass; assay type: in vivo, Brachiaria decumbens
Method in brief: as §1

morningglory = assay: Test B pre/postemergence morningglory; assay type: in vivo, Ipomoea hederacea
Method in brief: as §1

[1] = Rate 62 g/ha, scale of 0 to 10 where 0 is no effect and 10 is complete control
[2] = Rate 125 g/ha, scale of 0 to 10 where 0 is no effect and 10 is complete control
[3] = Rate 250 g/ha, scale 0 (no effect) to 10 (complete control)
[4] = Rate 31 g/ha, visual rating, scale 0 to 10 (0 no effect, 10 complete control)

## CC(=O)NCCn1c(=O)on(C(=O)N(c2ccc(F)cc2)C(C)C)c1=O [Compound 727]
velvetleaf; [1]
  Velvetleaf plant response rating: 0
velvetleaf; [2]
  Plant response rating, Velvetleaf: 0
velvetleaf; [3]
  Velvetleaf plant response rating: 0
corn; [4]
  Corn plant response rating: 0
corn; [1]
  Corn plant response rating: 0
corn; [2]
  Plant response rating, Corn: 0
corn; [3]
  Corn plant response rating: 0
pigweed; [1]
  Redroot pigweed plant response rating: 0
pigweed; [2]
  Plant response rating, Redroot pigweed: 5
pigweed; [3]
  Redroot pigweed plant response rating: 5
blackgrass; [4]
  Blackgrass plant response rating: 0
blackgrass; [1]
  Blackgrass plant response rating: 0
blackgrass; [2]
  Plant response rating, Blackgrass: 7
blackgrass; [3]
  Blackgrass plant response rating: 8
wheat; [1]
  Wheat plant response rating: 0
wheat; [2]
  Plant response rating, Wheat: 0
wheat; [3]
  Wheat plant response rating: 0
bedstraw; [4]
  Bedstraw plant response rating: 0
bedstraw; [1]
  Bedstraw plant response rating: 0
bedstraw; [2]
  Plant response rating, Bedstraw: 0
bedstraw; [3]
  Bedstraw plant response rating: 0
Purple nutsedge; [2]
  Plant response rating, Nutsedge: 0
Purple nutsedge; [3]
  Nutsedge plant response rating: 0
cocklebur; [4]
  Cocklebur plant response rating: 0
cocklebur; [1]
  Cocklebur plant response rating: 0
cocklebur; [2]
  Plant response rating, Cocklebur: 0
cocklebur; [3]
  Cocklebur plant response rating: 0
crabgrass; [4]
  Crabgrass plant response rating: 3
crabgrass; [1]
  Crabgrass plant response rating: 3
crabgrass; [2]
  Plant response rating, Crabgrass: 8
crabgrass; [3]
  Crabgrass plant response rating: 9
Wild oat; [1]
  Wild oats plant response rating: 0
Wild oat; [2]
  Plant response rating, Wild oats: 3
Wild oat; [3]
  Wild oats plant response rating: 3
soybean; [1]
  Soybean plant response rating: 0
soybean; [2]
  Plant response rating, Soybean: 0
soybean; [3]
  Soybean plant response rating: 0
rape; [1]
  Rape plant response rating: 0
rape; [2]
  Plant response rating, Rape: 0
rape; [3]
  Rape plant response rating: 1
Giant foxtail; [4]
  Giant foxtail plant response rating: 5
Giant foxtail; [1]
  Giant foxtail plant response rating: 7
Giant foxtail; [2]
  Plant response rating, Giant foxtail: 7
Giant foxtail; [3]
  Giant foxtail plant response rating: 10
Sugar beet; [1]
  Sugarbeets plant response rating: 0
Sugar beet; [2]
  Plant response rating, Sugarbeets: 0
Sugar beet; [3]
  Sugarbeets plant response rating: 0
Surinam grass; [4]
  B. signalgrass plant response rating: 0
Surinam grass; [1]
  B. signalgrass plant response rating: 0
Surinam grass; [2]
  Plant response rating, B. signalgrass: 6
Surinam grass; [3]
  B. signalgrass plant response rating: 7
morningglory; [1]
  Morningglory plant response rating: 0
morningglory; [2]
  Plant response rating, Morningglory: 0
morningglory; [3]
  Morningglory plant response rating: 0

Reference: patent US6737383B1, “Herbicidal oxadiazolidines” (priority 1999, dated 2004)
